{"source": "paper PMC6389928", "about": "“Biomolecular Interaction, Anti-Cancer and Anti-Angiogenic Properties of Cobalt(III) Schiff Base Complexes” (Scientific Reports, 2019)", "key": {"CT-DNA": {"tested_on": "CT-DNA", "experiment": "Electronic absorption titration of the complexes with CT-DNA", "format": "binding", "settings": "for intrinsic binding constant Kb: CT-DNA, plot of [DNA]/(εa−εf) vs [DNA]; for percentage of hypochromism (% H) / red shift: absorption spectra on incremental addition of CT-DNA", "procedure": "The absorption spectra of the complexes 1 and 2 were measured in presence and absence of CT-DNA, and the results are shown in Fig. 2.\nThe value of DNA binding constant (Kb) of the complexes 1 and 2 were calculated using the equation[32], [DNA]/(εa−εf)=[DNA]/(ε0−εf)+1/Kb(ε0−εf) where [DNA] is the concentration of DNA expressed in base pairs; εa is called as apparent extinction coefficient which is determined by calculating Aobs/[complex], εf and ε0 are the apparent free and fully-bound cobalt(III) complex extinction coefficients.\nThe intrinsic binding constants Kb of complexes 1 and 2 were calculated from the plot of [DNA]/ (εa-εf) versus [DNA] the values are shown in Table 1. […] As both the complexes intercalated with DNA, it is expected that salicylaldehyde aromatic moiety is involved in the intercalation. […] This is due to the presence of additional aromatic phenyl ring in the salophen Schiff base ligand in complex 2 which enhanced stacking interaction between salicylaldehyde aromatic moiety and DNA bases.\nConcentrated stock solution of DNA was prepared in PBS and sonicated for 25 cycles, where in each cycle consisted of 30 seconds with 1 min intervals. The DNA concentration per nucleotide was determined by electronic absorption spectroscopy using the known molar extinction coefficient value of 6600 M^−1 cm^−1 at 260 nm[79].\nThe stock solutions were prepared by dissolving the complexes 1 and 2 in an aqueous solution of DMSO as the co-solvent, and then diluted suitably with the corresponding buffer to the required concentrations for all the experiments. The final DMSO concentration never exceeded 0.5%. For absorption and emission spectral experiments, the DNA solutions were pre-treated with the solutions of metal complexes to ensure no change in the metal complex concentrations.\nAbsorption studies were performed by maintaining the constant concentration of both the complexes and varying the CT-DNA concentration. An equal amount of CT-DNA was added to the complexes and the reference solution to eliminate the absorbance of CT-DNA itself."}, "DNA": {"tested_on": "DNA", "experiment": "Viscosity measurement of DNA", "format": "binding", "settings": "30.0 ± 0.2 °C, increasing amounts of compound", "from_the_text": "The mode of interaction between DNA and complexes has been further confirmed using viscosity measurements. The intercalation between DNA and metal complex causes lengthening of the DNA helix and increases DNA’s relative viscosity. Ethidium bromide (EB) is a well known DNA intercalator which was used as a standard to make sure our viscosity determination was working properly. […] The increase in relative viscosity follows the DNA-intercalating ability and the order of relative viscosity is EB > 2 > 1.\nCD spectra of CT–DNA in the absence and presence of cobalt(III) complexes 1 and 2 were recorded in phosphate buffer. Each sample solution was scanned in the range of 200–320 nm, and final CD spectra were generated after averaging three scans subtracting the buffer background. Viscosity experiments were performed using an Ubbelohde viscometer at a constant temperature (30.0 ± 0.2 °C)."}, "BSA": {"biological_target": "BSA (Bos taurus, UniProt P02769)", "sequence (P02769 25-607)": "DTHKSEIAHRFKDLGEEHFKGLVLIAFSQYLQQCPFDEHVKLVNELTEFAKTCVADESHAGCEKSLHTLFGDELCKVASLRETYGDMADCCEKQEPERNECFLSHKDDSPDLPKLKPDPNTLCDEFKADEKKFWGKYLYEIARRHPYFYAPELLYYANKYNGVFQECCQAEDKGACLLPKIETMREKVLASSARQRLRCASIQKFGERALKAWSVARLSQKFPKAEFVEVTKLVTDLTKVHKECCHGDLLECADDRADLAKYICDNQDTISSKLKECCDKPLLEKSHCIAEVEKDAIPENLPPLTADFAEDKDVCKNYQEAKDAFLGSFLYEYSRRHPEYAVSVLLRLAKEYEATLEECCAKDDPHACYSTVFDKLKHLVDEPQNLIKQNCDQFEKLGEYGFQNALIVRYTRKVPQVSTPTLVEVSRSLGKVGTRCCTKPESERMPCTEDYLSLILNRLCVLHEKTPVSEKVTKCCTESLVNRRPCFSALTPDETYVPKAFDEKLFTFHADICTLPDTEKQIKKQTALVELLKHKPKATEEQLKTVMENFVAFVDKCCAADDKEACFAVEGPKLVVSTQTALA", "settings": "for Quenching Constant (kq): τ0 assumed 10^−8 s; for ∆G° / ∆H° / ∆S°: BSA binding; for ∆H° / ∆S°: van't Hoff plot 285-299 K", "procedure": "The obtained fluorescence quenching results were analyzed using the Stern-Volmer eqation, F0/F=1+Ksv[Q]kq=Ksv/τ0 where F0 and F are the fluorescence emission intensities of BSA in the absence and presence of complexes 1 and 2. KSV is the Stern-Volmer quenching constant, [Q] is concentration of the complexes 1 and 2, kq is the quenching rate constant of BSA and τ0 is the average lifetime of the emitter in the absence of quencher. The above equation was applied to determine KSV by linear regression of a plot of F0/F against [Q].\nNormally, quenching can take place either as dynamic quenching, static quenching or a combination of both mechanisms. Static quenching refers to fluorophore-quencher complex formation in the ground state while dynamic quenching refers to a process in which the fluorophores and the quencher come into contact during the transient existence of the excited state[57],[58]. The plots of F0/F versus [Q]\nFor the static quenching process, the binding constant (Kb) and the number of binding sites (n) can be determined by the following equation[62] log[(F0−F)]/F=logKb+nlog[Q] where F0 and F are the fluorescence intensities of the emitter in the absence and presence of the quencher, respectively, and [Q] the concentration of the quencher. Thus, a plot of log F0 − F/F versus log [Q] (Fig. 3) was used to determine Kb.\nIn general, intermolecular interacting forces between a small molecule and a biomacromolecule include hydrogen bonding, van der Waals force, and electrostatic and hydrophobic interactions. The thermodynamic parameters, enthalpy change (ΔH°) and entropy change (ΔS°) of the binding are important for confirming the binding mode. For this reason, these thermodynamic parameters have been calculated using the equation, lnKb=−ΔH°/RT+ΔS°/RΔG°=ΔH°−TΔS°=−RTInKb where Kb is the binding constant at the corresponding temperature, and R is the gas constant. The ΔH° and ΔS° values are calculated from the slope and intercept from plotting ln Kb versus 1/T (Fig. 3).\nThe concentration of BSA prepared in PBS buffer (pH = 7.4) was determined spectrophotometrically using the extinction coefficient of 43,800 M^−1 cm^−1 at 280 nm[80]. The fluorescence spectra of BSA were recorded at room temperature with an excitation wavelength of BSA at 280 nm and the emission at 350 nm by keeping the concentration of BSA constant (1.35 × 10^−[…]) while increasing the cobalt(III) complex concentration regularly."}, "EB - DNA": {"tested_on": "EB - DNA", "experiment": "Competitive binding with ethidium bromide: fluorescence quenching of EB - DNA", "settings": "quenching of EB-DNA emission, F0/F vs [complex]/[DNA], λex 450 nm", "from_the_text": "The complexes 1 and 2 are non-emissive in nature. […] In this study, changes in the intensity of the fluorescence emission band of EB - DNA complex were monitored after the addition of metal complexes 1 and 2 (Fig. 2). Upon increasing complex concentration in the DNA-EB solution, EB emission intensity was decreased. […] The resulting data (Table 1) of the complexes 1 and 2 with EB-DNA was processed from the standard Stern-Volmer equation[38], F0/F=1+Ksvr where F0 and F are the fluorescence emission intensities in the absence and presence of quencher (i.e. complexes 1 and 2), r is the ratio of concentration of the quencher. Ksv is the Stern-Volmer quenching constant.\nFor fluorescence quenching experiments, nucleic acids solution was pretreated with ethidium bromide (EB) for 30 min. Solutions of cobalt(III) complexes were then added to this mixture and their effect on the emission intensity was measured. The samples were excited at 450 nm and emission was observed between 500 and 750 nm."}}, "note": "Like-named read-outs stand apart in the source and are kept apart here.", "data": [{"smiles": "CCCCCCCCCCCC[NH2+][Co-3]123([NH2+]CCCCCCCCCCCC)[O]c4ccccc4C=[N+]1CC[N+]2=Cc1ccccc1[O]3.[O-][Cl+3]([O-])([O-])[O-]", "note": "[Complex 1, trans-[Co(salen)(DA)2](ClO4)]", "values": [{"measurement": "intrinsic binding constant Kb", "setting": "CT-DNA", "value": 13100, "unit": "M⁻¹"}, {"measurement": "percentage of hypochromism (% H)", "setting": "CT-DNA", "value": 31.54, "unit": "%"}, {"measurement": "red shift", "setting": "CT-DNA", "value": 10, "unit": "nm"}, {"measurement": "effect on relative viscosity of DNA", "setting": "DNA", "value": "the relative viscosity of DNA increased"}, {"measurement": "Quenching Constant (kq)", "setting": "BSA; 285 K", "value": "1.6763 10^13 M^−1 s^−1"}, {"measurement": "Quenching Constant (kq)", "setting": "BSA; 292 K", "value": "1.3531 10^13 M^−1 s^−1"}, {"measurement": "Quenching Constant (kq)", "setting": "BSA; 299 K", "value": "1.0862 10^13 M^−1 s^−1"}, {"measurement": "∆G°", "setting": "BSA; 285 K", "value": -6.238, "unit": "kcal/mol"}, {"measurement": "∆G°", "setting": "BSA; 292 K", "value": -6.7008, "unit": "kcal/mol"}, {"measurement": "∆G°", "setting": "BSA; 299 K", "value": -7.4297, "unit": "kcal/mol"}, {"measurement": "∆H°", "setting": "BSA", "value": "+69.429 kJ mol^−1"}, {"measurement": "∆S°", "setting": "BSA", "value": "+335.928 J mol^−1 K^−1"}, {"measurement": "Stern–Volmer constant (Ksv)", "setting": "EB - DNA", "value": 0.5694}]}, {"smiles": "CCCCCCCCCCCC[NH2+][Co-3]123([NH2+]CCCCCCCCCCCC)[O]c4ccccc4C=[N+]1c1ccccc1[N+]2=Cc1ccccc1[O]3.[O-][Cl+3]([O-])([O-])[O-]", "note": "[Complex 2, trans-[Co(salophen)(DA)2](ClO4)]", "values": [{"measurement": "intrinsic binding constant Kb", "setting": "CT-DNA", "value": 31500, "unit": "M⁻¹"}, {"measurement": "percentage of hypochromism (% H)", "setting": "CT-DNA", "value": 36.81, "unit": "%"}, {"measurement": "red shift", "setting": "CT-DNA", "value": 13, "unit": "nm"}, {"measurement": "effect on relative viscosity of DNA", "setting": "DNA", "value": "the relative viscosity of DNA increased"}, {"measurement": "Quenching Constant (kq)", "setting": "BSA; 285 K", "value": "1.4802 10^13 M^−1 s^−1"}, {"measurement": "Quenching Constant (kq)", "setting": "BSA; 292 K", "value": "1.2245 10^13 M^−1 s^−1"}, {"measurement": "Quenching Constant (kq)", "setting": "BSA; 299 K", "value": "1.0114 10^13 M^−1 s^−1"}, {"measurement": "∆G°", "setting": "BSA; 285 K", "value": -5.6506, "unit": "kcal/mol"}, {"measurement": "∆G°", "setting": "BSA; 292 K", "value": -6.0217, "unit": "kcal/mol"}, {"measurement": "∆G°", "setting": "BSA; 299 K", "value": -6.9336, "unit": "kcal/mol"}, {"measurement": "∆H°", "setting": "BSA", "value": "+85.617 kJ mol^−1"}, {"measurement": "∆S°", "setting": "BSA", "value": "+383.182 J mol^−1 K^−1"}, {"measurement": "Stern–Volmer constant (Ksv)", "setting": "EB - DNA", "value": 0.6067}]}]}
